Ends that are not written are not given here.
What was measured:
parental HEK-293 cells = assay: FLIPR calcium mobilization assay, parental (non-transfected) HEK-293 cells; type: cell-based; settings: wild type (parental, non-transfected) HEK-293 cells; Fluo-3
Procedure: (§1) A functional assay was performed with FLIPR (Fluorescent Imaging Plate Reader, Molecular Devices) using the fluorescent calcium indicator Fluo-3 (Molecular Probes) on a 96 well platform. HEK-293 cells, either expressing the receptor or wild type cells, were loaded with Fluo-3 as follows. Stable HEK-293 clones expressing rat and human MAS receptor or parental cells were plated at a density of 10,000 cells/well in a 96 well plate. On the day of the experiment, the MAS receptor cells were loaded with fluorescent solution (Dulbecco's modified medium with 10% fetal bovine serum containing 4 μM Fluo-3 and 20% pluronic acid). The cells were incubated at 37° C. for one hour in a humidified chamber. Following the incubation step, cells were washed five times in Hanks' with 20 mM Hepes and 0.1% BSA (pH 7.4). The cells were analyzed using the FLIPR system to measure the mobilization of intracellular calcium in response to different compounds.

MAS receptor = assay: FLIPR calcium mobilization assay, HEK-293 cells expressing MAS receptor; type: cell-based, rat and human; settings: HEK-293 cells expressing the clone MAS receptor; Fluo-3
Procedure: HEK-293 cells were transfected with a mammalian expression construct coding for the rat and human MAS receptor (pcDNA 3.1 vector, Invitrogen) using the Superfect reagent (Qiagen). A stable receptor pool of MAS receptor was developed by applying a selection marker (G418, 0.9 mg/ml) and the cells were maintained in this selection medium. The presence of mRNA specific for clone MAS receptor was assessed by Northern blot analysis and by the reverse transcriptase polymerase chain reaction (RT-PCR).
as §1

[1] = non-thermal and mechanical analgesia, administered ICV; cited from earlier work
[2] = test system: mouse peritoneal macrophages; settings: administered to mice; not inhibited by naloxone; cited from earlier work

| Substance | calcium response (FLIPR signal) (parental HEK-293 cells) | calcium response (FLIPR signal) (MAS receptor) | analgesia [1] | phagocytosis [2] |
| --- | --- | --- | --- | --- |
| Dynorphin A 1-13: analogue (fragment 1-13) of Dynorphin A (YGGFLRRIRPKLK; Dynorphin A(1-13); UniProt P01213 207-219, looked up, fragment) | not in the wild type cells | consistently elicited signals | – | – |
| YGGFLRRIRPKLKWDNQ-COOH (YGGFLRRIRPKLKWDNQ-OH) [Dynorphin A] | not in the wild type cells | consistently elicited signals | moderately effective | enhanced phagocytosis |
| YGGFLRRIRPKLKWDNQ-COOH or NH2 (not fully specified; printed as YGGFLRRIRPKLKWDNQ-COOH or NH2) [Dynorphin A-NH2, C-terminal amide analogue of Dynorphin A] | not in the wild type cells | consistently elicited signals | – | – |

Reference: US7078177B2, “Method of assaying for agonists or antagonist of Dynorphin A binding to the MAS receptor” (AstraZeneca AB, priority 2000, dated 2006)
